Drawing on patent US20030079246A1, “Herbicide resistant plants” (priority 1999, published 2003), this text covers IC50 and Ki for one compound.

As usually defined, the IC50 is the concentration that gives 50% inhibition. Read a low IC50 as greater potency. Usually Ki stands for a dissociation constant, usually derived from enzyme kinetics or from competition with a known ligand.

Counter-ions that a name gives are not always drawn.

The target in this test is mutant form of rice EPSPS. The test can be described thus: EPSPS enzyme assay, inhibition of purified mutant rice EPSPS by glyphosate. The test is classed as biochemical. The source says: The resultant products are gel purified and placed into a tube in eqi-molar concentrations to serve as a template for another round of PCRs with the rice 5′ and 3′ oligos. The resultant products are cloned into pCRBlunt II using Invitrogens Zero Blunt TOPO kit. It is confirmed that the DNA sequence of the insert and its predicted open reading frame correspond to that of the predicted mature chloroplastic rice EPSPS protein (with the exception of the presence of an initiating Met) and also that the desired changes (the specific mutation of T to I and P to S at specific positions in the EPSPS sequence) are encoded. The thus cloned and verified rice epsps sequence is excised using Nde 1 and Xho 1 and the purified fragment cloned into pET24a (Novagen) digested similarly. The recombinant clones are introduced into BL21 (DE3), a codon optimised RP strain of E.coli supplied by Strategene. The EPSPS protein is expressed in this strain following addition of 1 mM IPTG to the fermenter medium (LB supplemented with 100 ug/ml Kanamycin). […]

As for `O=C(O)CNCP(=O)(O)O` [potassium salt of glyphosate], the IC50 (at 40 μM PEP, 2 mM shikimate-3-Pi) was ~600 µM. In addition, the Ki (mutant EPSPS, read-out: estimated Ki value) is ~200 µM.
